Laboratory results as given in US20230049952A1, “METHODS AND COMPOUNDS FOR RESTORING MUTANT P53 FUNCTION” (PMV Pharmaceuticals, Inc., priority 2020, published 2023).

Tests used:
[1] = target: p53 Y220C in MT373 tumors (Homo sapiens, UniProt P04637, Y220C); test: MT373 syngeneic sarcoma model: mutant, WT and total p53 ELISA in tumors; format: in vivo, mouse; settings: for Mutant p53 Protein, Percent Reduction Relative to Vehicle Control / Total p53 Protein, Percent Reduction Relative to Vehicle Control / WT p53 Protein, Fold Change over Vehicle Control: MT373 tumors
Procedure: Tumor Lysate Preparation: Lysis buffer was added to tumor samples and homogenized using a TissueLyser LT. Homogenized samples were spun by centrifuge for 30 minutes at 20817×g, and the supernatant transferred to a 1.5-mL tube. Protein samples were quantified, aliquoted into 96-well plates, and stored at −80° C.
Tumor lysates were diluted in blocking buffer such that the required protein amount is added to the plate in a 100 μL volume (WT p53 7.5 μg; mutant p53 2.5 μg; Total p53 2.5 μg). […] Plates were washed, and the reaction was developed using TMB for approximately 5 minutes and quenched with 0.16 M sulfuric acid. […] A background measurement was subtracted from the treated samples' signals. The signals were normalized to the respective vehicle controls.

[2] = test system: p53 target genes in MT373 tumors; test: MT373 syngeneic sarcoma model: p21, MDM2, GDF15 (MIC-1) mRNA RT-qPCR in tumors; format: in vivo, mouse; settings: for MDM2 mRNA, Fold Change over Vehicle Control / MIC-1 mRNA, Fold Change over Vehicle Control / p21 mRNA, Fold Change over Vehicle Control: MT373 tumors
Procedure: Purification of RNA: Frozen tumor samples with the required weight were lysed in Buffer RLT with 10 μL/mL of β-mercaptoethanol using a TissueLyser LT. Total RNA was further purified from the lysate using QIAcube with DNase digestion, and RNA concentration was measured with a NanoDrop 2000 Spectrophotometer.
p21, MDM2, GDF15, and GAPDH Gene Expression: Individual gene expression was analyzed by one-step TaqMan-based real-time RT-qPCR. Purified total RNA was diluted to 2.5 ng/μL in DNase- and RNase-free water, and 10 ng was used for each 20 μL RT-qPCR assay using a LightCycler 96. A QuantiTect Probe RT-PCR Kit was used along with a specific primer/probe set as indicated. LAM-MGB labels were used for genes GAPDH, CDKN1a, MDM2, GDL15, and TRP53. The expression of the reference gene (human GAPDH and/or mouse GAPDH as indicated) in the ratio to the vehicle control was calculated using the ΔCt method with normalization to the total RNA input. The expression of a gene of interest relative to the reference gene was calculated using the ΔCt method, and the expression of a gene of interest relative to the reference gene in the ratio to the vehicle control was calculated using the ΔΔCt method.

BSEP = BSEP (Homo sapiens, UniProt O95342); test: BSEP inhibition: TCA uptake into BSEP-expressing vesicles; format: in vitro ADME; settings: 10 μM test article
Procedure: An assay to measure BSEP-mediated TCA uptake into inside-out BSEP-expressing vesicles was used. […] The reaction was initiated by adding 5 mM ATP (adenosine 5′-triphosphate) as the energy source for BSEP. Negative controls were run in parallel, using 5 mM AMP (adenosine 5′-monophosphate) in place of ATP. The reactions were carried out in 96-well plates incubated in a humidified incubator (37° C. 5% CO2) for 30 minutes. After incubation, the vesicle-associated TCA and free TCA were separated by rapid filtration through a glass-fiber filter plate under vacuum.
All samples were assayed by liquid chromatography-tandem mass spectrometry (LC-MS/MS) using electrospray ionization. Liquid Chromatography was performed using a Thermo BDS Hypersil C18 30×2.1 mm, 3 μm, with guard column. […] The Aqueous Reservoir (A) was 90% water, 10% buffer. The Organic Reservoir (B) was 90% acetonitrile, 10% buffer. The Flow Rate was 700 μL/minute. The Total Run Time for the liquid chromatography was 2.5 minutes. The Autosampler was 20 μL injection volume. The Autosampler Wash was water/methanol/2-propanol: 1/1/1; with 0.2% formic acid. Mass Spectrometry was performed on the PE SCIEX API 4000 instrument. The interface was Turbo Ionspray. The mode was Multiple reaction monitoring. The method was performed over 2.5 minute duration.

[3] = 1 μM TCA, BSEP vesicles, 30 minutes

Sequence of BSEP (O95342 whole entry, species assumed): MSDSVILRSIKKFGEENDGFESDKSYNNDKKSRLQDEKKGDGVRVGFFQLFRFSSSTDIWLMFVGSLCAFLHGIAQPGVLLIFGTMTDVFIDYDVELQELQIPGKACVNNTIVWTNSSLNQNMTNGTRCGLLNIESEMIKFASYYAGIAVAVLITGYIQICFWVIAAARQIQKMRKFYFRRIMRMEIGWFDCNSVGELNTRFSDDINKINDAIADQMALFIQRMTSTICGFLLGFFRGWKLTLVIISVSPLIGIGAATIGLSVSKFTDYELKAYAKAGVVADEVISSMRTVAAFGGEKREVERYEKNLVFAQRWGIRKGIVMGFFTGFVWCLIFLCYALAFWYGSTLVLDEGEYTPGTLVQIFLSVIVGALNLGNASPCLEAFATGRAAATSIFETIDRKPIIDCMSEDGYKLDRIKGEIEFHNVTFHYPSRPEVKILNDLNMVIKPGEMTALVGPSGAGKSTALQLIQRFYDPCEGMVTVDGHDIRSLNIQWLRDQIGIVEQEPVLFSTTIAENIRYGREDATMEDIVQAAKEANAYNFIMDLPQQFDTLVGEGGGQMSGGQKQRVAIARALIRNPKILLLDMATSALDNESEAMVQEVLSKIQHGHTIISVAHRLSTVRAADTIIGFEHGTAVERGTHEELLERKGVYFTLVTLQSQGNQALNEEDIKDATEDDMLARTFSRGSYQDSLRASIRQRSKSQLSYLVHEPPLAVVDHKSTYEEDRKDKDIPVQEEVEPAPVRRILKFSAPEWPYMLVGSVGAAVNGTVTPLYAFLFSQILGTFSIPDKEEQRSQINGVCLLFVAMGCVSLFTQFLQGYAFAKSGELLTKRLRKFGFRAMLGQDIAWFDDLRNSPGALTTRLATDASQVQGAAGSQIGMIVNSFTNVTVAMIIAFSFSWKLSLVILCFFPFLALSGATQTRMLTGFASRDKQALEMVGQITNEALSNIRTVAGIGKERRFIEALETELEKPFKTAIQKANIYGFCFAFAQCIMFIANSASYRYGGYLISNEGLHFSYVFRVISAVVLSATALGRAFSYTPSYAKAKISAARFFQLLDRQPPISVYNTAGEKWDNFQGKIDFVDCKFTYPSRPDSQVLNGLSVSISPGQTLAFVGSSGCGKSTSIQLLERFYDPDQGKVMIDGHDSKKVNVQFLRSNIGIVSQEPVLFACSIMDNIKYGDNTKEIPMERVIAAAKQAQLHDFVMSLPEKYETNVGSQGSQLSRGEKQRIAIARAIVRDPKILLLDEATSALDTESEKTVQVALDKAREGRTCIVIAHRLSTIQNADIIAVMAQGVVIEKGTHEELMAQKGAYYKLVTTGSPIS

## CCn1c(C#CCNc2ccccc2)cc2cc(CNC3CCN(C)CC3)ccc21 [Compound 1, 1-Anilino-3-{1-ethyl-5-[(1-methyl-4-piperidylamino)methyl]-1H-indol-2-yl}-2-propyne]
[1]; 75 mg/kg BIDx1 PO, 8 h
  Mutant p53 Protein, Percent Reduction Relative to Vehicle Control: 53.91%
  Total p53 Protein, Percent Reduction Relative to Vehicle Control: 35.06%
  WT p53 Protein, Fold Change over Vehicle Control: 1.25 fold
[1]; 75 mg/kg BIDx1 PO, 24 h
  Mutant p53 Protein, Percent Reduction Relative to Vehicle Control: 79.50%
  Total p53 Protein, Percent Reduction Relative to Vehicle Control: 72.38%
  WT p53 Protein, Fold Change over Vehicle Control: 1.13 fold
[1]; 75 mg/kg BIDx1 PO, 48 h
  Mutant p53 Protein, Percent Reduction Relative to Vehicle Control: 67.23%
  Total p53 Protein, Percent Reduction Relative to Vehicle Control: 63.03%
  WT p53 Protein, Fold Change over Vehicle Control: 1.02 fold
[1]; 75 mg/kg BIDx1 PO, 72 h
  Mutant p53 Protein, Percent Reduction Relative to Vehicle Control: 16.87%
  Total p53 Protein, Percent Reduction Relative to Vehicle Control: 19.65%
  WT p53 Protein, Fold Change over Vehicle Control: 1.11 fold
[1]; 75 mg/kg BIDx1 PO, 98 h
  Mutant p53 Protein, Percent Reduction Relative to Vehicle Control: 0.00%
  Total p53 Protein, Percent Reduction Relative to Vehicle Control: 0.00%
  WT p53 Protein, Fold Change over Vehicle Control: 1.13 fold
[1]; 75 mg/kg BIDx1 PO, […]
  Mutant p53 Protein, Percent Reduction Relative to Vehicle Control: 45.58%
  Total p53 Protein, Percent Reduction Relative to Vehicle Control: 44.67%
  WT p53 Protein, Fold Change over Vehicle Control: 0.88 fold
[1]; 75 mg/kg BID×1 PO, 8 h
  increase in WT conformation p53: 1.25 fold
[1]; 150 mg/kg BIDx1 PO, 8 h
  Mutant p53 Protein, Percent Reduction Relative to Vehicle Control: 82.30%
  Total p53 Protein, Percent Reduction Relative to Vehicle Control: 56.64%
  WT p53 Protein, Fold Change over Vehicle Control: 1.45 fold
[1]; 150 mg/kg BIDx1 PO, 24 h
  Mutant p53 Protein, Percent Reduction Relative to Vehicle Control: 93.74%
  Total p53 Protein, Percent Reduction Relative to Vehicle Control: 81.75%
  WT p53 Protein, Fold Change over Vehicle Control: 1.08 fold
[1]; 150 mg/kg BIDx1 PO, 48 h
  Mutant p53 Protein, Percent Reduction Relative to Vehicle Control: 81.64%
  Total p53 Protein, Percent Reduction Relative to Vehicle Control: 81.46%
  WT p53 Protein, Fold Change over Vehicle Control: 0.94 fold
[1]; 150 mg/kg BIDx1 PO, 72 h
  Mutant p53 Protein, Percent Reduction Relative to Vehicle Control: 58.64%
  Total p53 Protein, Percent Reduction Relative to Vehicle Control: 60.43%
  WT p53 Protein, Fold Change over Vehicle Control: 0.86 fold
[1]; 150 mg/kg BIDx1 PO, 98 h
  Mutant p53 Protein, Percent Reduction Relative to Vehicle Control: 0.00%
  Total p53 Protein, Percent Reduction Relative to Vehicle Control: 0.60%
  WT p53 Protein, Fold Change over Vehicle Control: 0.95 fold
[1]; 150 mg/kg BIDx1 PO, […]
  Mutant p53 Protein, Percent Reduction Relative to Vehicle Control: 34.14%
  Total p53 Protein, Percent Reduction Relative to Vehicle Control: 32.40%
  WT p53 Protein, Fold Change over Vehicle Control: 0.86 fold
[1]; 150 mg/kg BID×1 PO, 8 h
  increase in WT conformation p53: 1.45 fold
[2]; 75 mg/kg BIDx1 PO, 8 h
  MDM2 mRNA, Fold Change over Vehicle Control: 6.16 fold
  MIC-1 mRNA, Fold Change over Vehicle Control: 1.74 fold
  p21 mRNA, Fold Change over Vehicle Control: 5.43 fold
[2]; 75 mg/kg BIDx1 PO, 24 h
  MDM2 mRNA, Fold Change over Vehicle Control: 2.44 fold
  MIC-1 mRNA, Fold Change over Vehicle Control: 1.14 fold
  p21 mRNA, Fold Change over Vehicle Control: 4.04 fold
[2]; 75 mg/kg BIDx1 PO, 48 h
  MDM2 mRNA, Fold Change over Vehicle Control: 1.12 fold
  MIC-1 mRNA, Fold Change over Vehicle Control: 0.85 fold
  p21 mRNA, Fold Change over Vehicle Control: 1.43 fold
[2]; 75 mg/kg BIDx1 PO, 72 h
  MDM2 mRNA, Fold Change over Vehicle Control: 1.08 fold
  MIC-1 mRNA, Fold Change over Vehicle Control: 0.65 fold
  p21 mRNA, Fold Change over Vehicle Control: 1.18 fold
[2]; 75 mg/kg BIDx1 PO, 98 h
  MDM2 mRNA, Fold Change over Vehicle Control: 1.11 fold
  MIC-1 mRNA, Fold Change over Vehicle Control: 1.05 fold
[2]; 75 mg/kg BIDx1 PO
  p21 mRNA, Fold Change over Vehicle Control: 0.99 fold
[2]; 75 mg/kg BIDx1 PO, […]
  MDM2 mRNA, Fold Change over Vehicle Control: 0.85 fold
  MIC-1 mRNA, Fold Change over Vehicle Control: 0.88 fold
  p21 mRNA, Fold Change over Vehicle Control: 0.98 fold
[2]; 75 mg/kg BID×1, 8 h
  MDM2 mRNA increase: 6.2 fold
  p21 mRNA increase: 5.4 fold
[2]; 75 mg/kg BID×1, 24 h
  MDM2 mRNA increase: 2.4 fold
  p21 mRNA increase: 4.0 fold
[2]; 150 mg/kg BIDx1 PO, 8 h
  MDM2 mRNA, Fold Change over Vehicle Control: 8.70 fold
  MIC-1 mRNA, Fold Change over Vehicle Control: 3.07 fold
  p21 mRNA, Fold Change over Vehicle Control: 6.73 fold
[2]; 150 mg/kg BIDx1 PO, 24 h
  MDM2 mRNA, Fold Change over Vehicle Control: 6.88 fold
  MIC-1 mRNA, Fold Change over Vehicle Control: 2.29 fold
  p21 mRNA, Fold Change over Vehicle Control: 9.61 fold
[2]; 150 mg/kg BIDx1 PO, 48 h
  MDM2 mRNA, Fold Change over Vehicle Control: 1.43 fold
  MIC-1 mRNA, Fold Change over Vehicle Control: 1.14 fold
  p21 mRNA, Fold Change over Vehicle Control: 1.87 fold
[2]; 150 mg/kg BIDx1 PO, 72 h
  MDM2 mRNA, Fold Change over Vehicle Control: 1.33 fold
  MIC-1 mRNA, Fold Change over Vehicle Control: 0.93 fold
  p21 mRNA, Fold Change over Vehicle Control: 1.33 fold
[2]; 150 mg/kg BIDx1 PO, 98 h
  MDM2 mRNA, Fold Change over Vehicle Control: 1.12 fold
  MIC-1 mRNA, Fold Change over Vehicle Control: 0.53 fold
[2]; 150 mg/kg BIDx1 PO
  p21 mRNA, Fold Change over Vehicle Control: 1.01 fold
[2]; 150 mg/kg BIDx1 PO, […]
  MDM2 mRNA, Fold Change over Vehicle Control: 1.16 fold
  MIC-1 mRNA, Fold Change over Vehicle Control: 1.00 fold
  p21 mRNA, Fold Change over Vehicle Control: 0.85 fold
[2]; 150 mg/kg BID×1, 8 h
  MDM2 mRNA increase: 8.7 fold
  MIC-1 mRNA increase: 3.07 fold
  p21 mRNA increase: 6.7 fold
[2]; 150 mg/kg BID×1, 24 h
  MDM2 mRNA increase: 6.9 fold
  MIC-1 mRNA increase: 2.29 fold
  p21 mRNA increase: 9.6 fold
BSEP
  BSEP Inhibition Potential Classification: Negative (Percent inhibition <50%: Negative)
BSEP; 1 μM TCA, AMP negative control
  TCA Concentration, Cofactor AMP, AVG: 1.97 nM
  TCA Concentration, Cofactor AMP, R1: 1.50 nM
BSEP; [3]
  TCA Concentration, Cofactor ATP, AVG: 85.5 nM
  TCA Concentration, Cofactor ATP, R1: 87. nM
BSEP; TCA 1 μM
  BSEP Inhibition Classification: negative
BSEP; negative values reported as 0
  Percent Inhibition: 0%
